From PMC3138742 (PLoS ONE, 2011)

What was measured:
[1] = test system: SK-OV-3 cells transfected with ErbB2 siRNA; assay: SRB assay after ErbB2 siRNA transfection; assay type: cell-based, human; details: SK-OV-3, ErbB2 siRNA 50 nmol/L, AST1306 6.25 µmol/L (p<0.05) or 12.5 µmol/L (p<0.01)
Source text: Small interfering RNA (siRNA) against EGFR or ErbB2, as well as control siRNA, were designed and synthesized by Shanghai GenePharma Co. Ltd. One pair of ErbB2 siRNA (sequence: 5′ […] 3′), and two pairs of EGFR siRNA (#1 sequence: 5′ […] 3′; #2 sequence: 5′ […] 3′) were applied in this study. Different kind of siRNA (final concentration: 50 nmol/L) was transfected to SK-OV-3 cells with oligofectamine reagent (Invitrogen) according to the manufacturer's instruction.

[2] = test system: phosphorylation of EGFR and downstream pathways in NCI-H1975 cells; assay: Western blot of EGF-induced phosphorylation; assay type: cell-based, human
Procedure: The tyrosine kinase activities were determined using enzyme-linked immunosorbant assay (ELISA). The serine/threonine kinase activities were detected by Caliper Mobility Shift Assay on EZ Reader (Caliper Life Sciences, MA) according to the instruction.
Cell viability was determined using sulforhodamine B assay. IC50 values were determined based on the results of three independent experiments. […] Whole-cell lysates were assayed for total EGFR and phosphorylation of EGFR by immunoblotting. […] Cell viability was determined using sulforhodamine B assay.

A549 cells = assay: Anchorage-independent growth on soft agar; assay type: cell-based, human; details: two weeks
Procedure: The culture was maintained at 37°C in a 5% CO2 atmosphere for two weeks. The average colony number was calculated and colonies were photographed. […] Anchorage-independent cell transformation assay. Cell transformation was detected in SK-OV-3 and A549 cells, respectively. […] The culture were maintained in a 37°C, 5% CO2 incubator for 1-2 weeks, and the cell colonies were scored using a microscope and the Image-Pro PLUS computer software program (Media Cybernetics, Silver Spring, MD).

NIH3T3 parental cells = assay: Cell proliferation SRB assay; assay type: cell-based; details: 72 h, compared with NIH3T3-EGFR T790M/L858R
Source text: SK-OV-3, BT474, MDA-MB-468, Calu-3, A-549, NCI-H23, NCI-H1975 and NIH3T3 cells were obtained from the American Type Culture Collection (Rockville, MD). HO-8910 cells were obtained from the cell bank of the Chinese Academy of Sciences. MCF-7 cells were obtained from the Japanese Foundation of Cancer Research. NIH3T3 cells that overexpressed EGFR T790M/L858R mutant (NIH3T3-EGFR T790M/L858R) were constructed and maintained in our laboratory. All cell lines were maintained in strict accordance with the supplier's instructions and established procedures.
Cell viability was determined using sulforhodamine B assay. IC50 values were determined based on the results of three independent experiments. […] Whole-cell lysates were assayed for total EGFR and phosphorylation of EGFR by immunoblotting. A representative anti-GAPDH immunoblot is shown as a loading control. […] Cell viability was determined using sulforhodamine B assay.
Cell proliferation was evaluated using the SRB (Sulforhodamine B) assay as previously described. Briefly, cells were seeded into 96-well plates and grown for 24 h. […] After cells were air-dried, protein-bound dye was dissolved in 150 μL of 10 mmol/L Tris base for 5 min and measured at 515 nm using a multiwell spectrophotometer (VERSAmax, Molecular Devices). […] The IC50 value was obtained by the Logit method and was determined from the results of at least 3 independent tests.

With `C=CC(=O)Nc1ccc2ncnc(Nc3ccc(OCc4cccc(F)c4)c(Cl)c3)c2c1` [AST1306] the “sensitivity to antiproliferative effect after ErbB2 knockdown” value [1] was “significantly more resistant”, the “inhibition of phosphorylation of EGFR and downstream pathways” value [2] was “blocked phosphorylation of EGFR and downstream pathways” and the “anchorage-independent growth on soft agar” value (A549 cells) was “dramatically inhibit the growth”. For the same compound, the “inhibition of cell growth” value (NIH3T3 parental cells) was “much less potent”.
